Molecular target: T1, S1P1 receptor (Homo sapiens, UniProt P21453)
T1 construct: expressed in transfected cells
Assay: S1P1 (EDG-1) GTP[γ-35S] binding assay, membranes from CHO cells
Assay type: biochemical
Conditions: CHO cell membranes
Protocol: A. In Vitro: GPCR Activation Assay Measuring GTP [γ-^35S] Binding to Membranes Prepared from CHO Cells Expressing Human S1P Receptors
S1P, (EDG-1) GTP [γ-^35S] binding assay: Homogenized membranes are prepared from CHO cell clones stably expressing a human EDG-1 N-terminal c-myc tag. Cells are grown in suspension in two 850 cm^2 roller bottles for three or fours days before harvesting. The cells are centrifuged down, washed once with cold PBS, and resuspended in ≦20 ml of Buffer A (20 mM HEPES, pH 7.4, […], EDTA-free complete protease inhibitor cocktail [1 tablet/25 ml]). The cell suspension is homogenized on ice, using a Polytron homogenizer at 30000 rpm at three intervals of 15 seconds each. The homogenate is first centrifuged at 2000 rpm on a tabletop low speed centrifuge for 10 minutes. The supernatant, after passing through a cell strainer, is then re-centrifuged at 50,000×g for 25 minutes at 4° C. The pellet is resuspended into buffer B (15% glycerol, 20 mM HEPES, pH 7.4, 0.1 mM EDTA, EDTA-free complete protease inhibitor cocktail [1 tablet/10 ml]). Protein concentration of the preparation is determined using the BCA Protein Assay kit (Pierce) using BSA as standard. The membranes are aliquoted and kept frozen at −80° C.
Solutions of test compounds ranging from 10 mM to 0.01 nM are prepared in DMSO. S1P is diluted in 4% BSA solution as positive controls. The desired amount of membrane preparation is diluted with ice-cold assay buffer (20 mM HEPES, pH 7.4, 100 mM NaCl, 10 mM MgCl2, 0.1% Fatty acid-free BSA, 5 μM GDP) and vortexed well. 2 μl or less of compound is distributed into each well of a round-bottom 96-well polystyrene assay plate, followed by addition of 100 μl of diluted membranes (3-10 μg/well) and kept on ice until the addition of hot GTPγS. [^35S]-GTPγS is diluted 1:1000 (v/v) with cold assay buffer and 100 μl is added into each well. The reaction is carried out at room temperature for 90 minutes before the membranes are harvested onto Perkin-Elmer Unifilter® GF/B-96 filter plate using a Packard Filtermate Harvester. […]

T1 sequence (P21453 whole entry): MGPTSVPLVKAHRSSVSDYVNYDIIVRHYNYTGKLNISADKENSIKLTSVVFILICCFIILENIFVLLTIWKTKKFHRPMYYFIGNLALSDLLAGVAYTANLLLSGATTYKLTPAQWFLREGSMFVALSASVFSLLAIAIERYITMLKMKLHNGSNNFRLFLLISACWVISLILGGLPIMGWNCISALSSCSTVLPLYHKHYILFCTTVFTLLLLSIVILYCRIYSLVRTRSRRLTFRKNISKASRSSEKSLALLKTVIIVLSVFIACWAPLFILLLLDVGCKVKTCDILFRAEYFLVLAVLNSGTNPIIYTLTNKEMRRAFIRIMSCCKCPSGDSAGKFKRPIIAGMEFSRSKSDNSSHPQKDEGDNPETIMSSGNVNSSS

EC50 [nM]	SMILES
< 100	CNCc1ccc(-c2noc(-c3ccc(-c4ccccc4)c(C(F)(F)F)c3)n2)cc1 [Example 44]
< 100	CCOc1ccc(-c2nc(-c3ccc(CN)cc3)no2)cc1C(F)(F)F [Example 21]
< 100	CCc1cc(-c2noc(-c3ccc(OC(C)C)c(-c4ccccc4)c3)n2)ccc1S(N)(=O)=O [Example 105]

Reference: US20100087491A1, “POLYCYCLIC COMPOUNDS” (priority 2006, published 2010)
